We go through 89 molecules from PubChem BioAssay AID1288 (Columbia University Molecular Screening Center, 2008).

Activity calls are given as the source filed them. How the calls were made is not given here.

The inhibition is the drop in the measured response relative to a control, in per cent.

The experiment in a line: inhibitors of TNFa-induced E-selectin expression, confirmation, imaging, retest plus dose response, cell count (AID 1288).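 Further: 0% = stimulated vehicle wells and 100% = unstimulated vehicle wells.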 The conditions noted are these: human endothelial cells, TNFa-induced E-selectin, imaging; at 2 µM; hits give high values.

On to `C/C(=N\NC(=O)c1cccc(C)c1)c1ccc(N2CCOCC2)cc1`, for which the inhibition was 4.53% (inactive). As to `O=C(O)C1CCCN1S(=O)(=O)c1ccc(Br)s1` (centres undefined) (tested in a mixture with another compound), the inhibition is 6.99% (inactive). Then `O=C(c1cccs1)N(C(=O)c1cccs1)c1ccc(Br)cn1`, with 15.4% (inactive). With `CN(C)CC1CSCCC1(O)c1ccc(Cl)cc1` (centres undefined), the inhibition was 20.4% (inactive). The same measure for `NC(=O)NOCc1ccccc1`: -1.04% (inactive).

Regarding `CCOC(=O)c1c(NC(=O)CSc2nnc(C)c(=O)[nH]2)sc(C)c1C`, the inhibition was 8.64% (inactive). As to `CCC(=O)Nc1c(-c2ccc(OC)cc2)c(=O)c2ccccc2n1C`, the inhibition was 6.09% (inactive). Then `CC(NC(=O)COc1cccc(Br)c1)C(=O)O` (centres undefined), with 24.6% (inactive); and `Cc1cccc(NC(=S)Nc2ccccn2)c1C`, with -0.54% (inactive). As for `COc1ccc(C2C(C(=O)Nc3cccnc3)=C(C)Nc3nc(-c4cccs4)nn32)cc1` (centres undefined), the inhibition was 7.57% (inactive). The same measure for `Cc1ccc(CNC(=O)C2CCN(S(=O)(=O)c3c(C)noc3/C=C/c3ccco3)CC2)cc1`: 4.12% (inactive); for `O=C(COC(=O)CCc1ccc(S(=O)(=O)N2CCOCC2)cc1)NC1CCCC1`: 2.85% (inactive). With `O=c1cc(-c2ccc(F)cc2)oc2ccccc12`, the inhibition is 0.15% (inactive). In the case of `C=CCn1c(O)c(C(C)=Nc2ccc(NC(C)=O)cc2)c(=O)[nH]c1=O`, the inhibition was 17.3% (inactive).

As to `O=C(OCC1CC(c2ccccn2)=NO1)c1ccc(Br)cc1` (centres undefined), the inhibition is 9.31% (inactive). `CC(C)Cc1nnc(NS(C)(=O)=O)s1`: the inhibition is 4.19% (inactive). The same measure for `CCN(CC)c1ccc(NC(=O)COC(=O)/C=C/c2nc3ccccc3s2)cc1`: 15.5% (inactive); for `COC(=O)c1c(-c2ccccc2)csc1NC(=O)c1ccco1`: 14.7% (inactive). `CCC(=O)Nc1nnc(-c2ccccn2)o1`: the inhibition was 14.7% (inactive). As to `COc1ccc(N/C=C/C(=O)c2ccc(C)cc2)c([N+](=O)[O-])c1`, the inhibition is 17.3% (inactive). Then `Cc1cc([N+](=O)[O-])nn1CC(=O)Nc1sc2c(c1C(N)=O)CCCC2`, with 18.3% (inactive); and `O=C1CC(c2ccccc2)n2nc(NC(=O)C3CCCO3)nc2N1` (centres undefined), with -5.55% (inactive). Then `COc1ccccc1N1CCN(C(=O)c2ccc(Br)s2)CC1`, with 0.09% (inactive). The same measure for `O=C(c1ccc(Cl)cc1)N1CCCC(c2ccccc2)=N1`: 10% (inactive); for `CCN(CC)S(=O)(=O)c1ccc2[nH]c(=O)cc(C(=O)Nc3cccc(C(C)=O)c3)c2c1`: 8.83% (inactive); for `O=C(C1CCCO1)N1CCN(c2c3c(nc4cc(-c5ccc(F)cc5)nn24)CCC3)CC1` (centres undefined): 5.9% (inactive). Turning to `Cc1nc(=O)c(-c2ccccc2)c(C)n1-c1ccc(S(N)(=O)=O)cc1`, the inhibition was 42.4% (inactive). Turning to `S=C(NCc1cccs1)Nc1cccc(Cl)c1Cl`, the inhibition is 8.76% (inactive). As to `O=C(/C=C/Nc1cccc(C(F)(F)F)c1)c1ccc(Oc2ncccn2)cc1`, the inhibition is 18% (inactive). The same measure for `O=C(NN=C1CCN(Cc2ccccc2)CC1)c1ccccc1`: 9.36% (inactive). Then `CC1(C)CC(=O)C2=C(C1)NCN(Cc1ccc3c(c1)OCO3)C2`, with 3.18% (inactive); and `CC(OC(=O)CCN1C(=O)c2cccc([N+](=O)[O-])c2C1=O)C(=O)Nc1cc(Cl)cc(Cl)c1` (centres undefined), with 36.2% (inactive). As for `CCOC(=O)c1sc(=N)n(-c2ccc(OC)cc2)c1C`, the inhibition was -1.33% (inactive). The same measure for `COc1ccc2nc(NC(=O)CSC3=NCCS3)sc2c1`: -0.86% (inactive); for `Cn1c(CCNC(=O)C2CCCCC2)nc2cc(NC(=O)c3cccs3)ccc21`: 3.87% (inactive). As for `COc1ccc(Br)cc1C(=O)O`, the inhibition is -3.94% (inactive).

With `C/C(=N\NC(=O)CN(c1ccccc1Br)S(C)(=O)=O)c1ccc2c(c1)OCCO2`, the inhibition was 1.65% (inactive). With `C=CCN1C(c2cccc(C(F)(F)F)c2)=CS/C1=C(/C#N)c1nnc(N2CCOCC2)n1-c1ccccc1`, the inhibition was 31.5% (inactive). For the molecule `COc1ccc(Br)cc1CN(C)CC(=O)Nc1cc(Cl)ccc1Cl`, the inhibition is -1.79% (inactive). With `CCCc1c(O)c2ccccc2[nH]c1=O`, the inhibition is 0.12% (inactive). The same measure for `CC(Sc1nnc(-c2cccs2)n1Cc1ccccc1)C(=O)NCc1ccc2c(c1)OCO2` (centres undefined): 1.65% (inactive); for `CCC(=O)N1CCc2cc(Br)cc(S(=O)(=O)NCc3ccco3)c21`: 0.76% (inactive). As to `C=CCn1c(=O)c2ccccc2n2c(SCC(=O)N3CCCc4ccccc43)nnc12`, the inhibition was 6.51% (inactive). In the case of `CC(Oc1ccc(Cl)cc1Cl)C(=O)N(Cc1ccco1)C1CCS(=O)(=O)C1` (centres undefined), the inhibition was 33.5% (inactive). In the case of `Cc1nc2oc(C(=O)c3ccccc3)c(N)c2c2c1COC(C)(C)C2`, the inhibition is 0.22% (inactive). Then `COC(=O)c1cc2oc(C)cc2n1CC(=O)N1CCCc2ccccc21`, with 9.68% (inactive); and `CCCCCCOC(=O)/C=C/c1c(C)[nH]c(=O)[nH]c1=O`, with 30.8% (inactive). Then `COc1ccc(C2C(C#N)=C(SCC(=O)Nc3ccc(C)cc3)NC3=C2C(=O)CC(C)(C)C3)cc1` (centres undefined), with 4.4% (inactive); and `O=c1cc(C(F)F)oc2c1ccc1ccccc12`, with -6.72% (inactive).

Regarding `COc1ccc(Cc2nnc(NC(=O)Cc3cccs3)s2)cc1`, the inhibition was 1.69% (inactive).

In the case of `COc1ccccc1-c1nc(-c2ccc(C)nc2OC)no1`, the inhibition was 0.65% (inactive). Then `Cc1ccc(C)c(NC(=O)CSc2nnc([C@@H](N)Cc3ccccc3)o2)c1`, with 13.6% (inactive). Then `O=C(c1cccs1)N1CCN=C1SCc1ccccc1`, with 9.69% (inactive); and `O=C(CSc1ncccn1)NCc1ccccc1Cl`, with 32.9% (inactive); and `COc1ccc(-c2n[nH]c(C(F)(F)F)c2-c2cc3ccccc3o2)c(O)c1`, with 3.2% (inactive).

In the case of `O=c1cc(O)n(-c2ccc(F)cc2)c(=S)[nH]1`, the inhibition was -0.2% (inactive). With `COc1ccc(CCNC(=O)C(=O)NCc2ccc(C)cc2)cc1OC`, the inhibition is 8.92% (inactive). As to `N#Cc1cccc(-n2c(-c3ccccc3)nnc2-c2ccccc2)c1C#N`, the inhibition was 4.7% (inactive). As for `CC(C)C(=O)N(c1ccc(F)cc1)C1C=CS(=O)(=O)C1` (centres undefined), the inhibition is -2.25% (inactive).

On to `OCCNCCOc1ccc(Cl)c(Cl)c1`, for which the inhibition is 1.74% (inactive). As for `CN(c1ccc(C(=O)NCC2CCCO2)cc1)S(C)(=O)=O` (centres undefined), the inhibition was 6.07% (inactive). The same measure for `Cc1ccc(/C=C2\SC(N)=NC2=O)s1`: 1.87% (inactive); for `O=C(N/N=C/c1ccc([N+](=O)[O-])s1)c1cccnc1`: 44.3% (inactive); for `O=C(O)/C=C/c1ccc2ccccc2n1`: -2.31% (inactive). The same measure for `Cc1oc2c(C)c(O)ccc2c(=O)c1-c1cnn(-c2ccccc2)c1`: -7.41% (inactive); for `CN(C(=S)Nc1ccc(Oc2ccccc2)cc1)c1ccc(O)cc1`: 12.6% (inactive); for `CC(C(=O)O)C1SC(=O)NC1=O` (centres undefined): 12.7% (inactive). Then `COc1ccc(CCN(C)c2ccc(S(=O)(=O)N3CCCC3)cn2)cc1OC`, with 28.4% (inactive); and `CC(/C=C/c1ccco1)=N\NC(=O)c1cc(C)[nH]n1`, with 12% (inactive); and `O=c1c2ccccc2n2c(-c3cccc(F)c3)nnc2n1Cc1ccccc1`, with -8.49% (inactive). As for `CCCCc1c(O)nc(SCC(=O)Nc2ccc3c(c2)CCC3)[nH]c1=O`, the inhibition is 14.6% (inactive). The same measure for `O=C(NNc1nc2ccccc2s1)Nc1ccccc1`: 5.88% (inactive); for `O=C(Nc1cc2ccccc2oc1=O)c1ccccc1`: 7.06% (inactive); for `Cc1ccc(/C=N/n2c(=O)c(C(C)(C)C)nn3cnnc23)cc1`: 6.53% (inactive). As for `Cn1c(SCc2ccc(Br)cc2)nnc1-c1ccncc1`, the inhibition was 0.83% (inactive). For the molecule `Cc1ccc(-n2c(=O)c3c4c(sc3n(Cc3cc(=O)n5ccccc5n3)c2=O)CCC4)cc1C`, the inhibition was 3.95% (inactive). Then `CCN1CCN(Cc2ccc(C)cc2)CC1`, with 6.18% (inactive); and `CC1CCN(S(=O)(=O)c2ccc(NC(=O)CSc3ncccc3C(=O)O)cc2)CC1`, with 5.02% (inactive); and `O=C(/C=C/c1ccccc1)Nc1ncn[nH]1`, with 5.62% (inactive). The same measure for `COc1ccccc1C1/C(=C(/O)c2ccc(C)cc2)C(=O)C(=O)N1CCN1CCOCC1` (centres undefined): 6.7% (inactive); for `C/C(=N\Nc1cc(-c2ccccc2)nc(-c2ccccc2)n1)c1ccc(O)c(C)c1`: 5.91% (inactive). As to `Cc1ccc(/C([O-])=C(/C(=S)NCc2ccccc2)[n+]2cccc(CO)c2)cc1[N+](=O)[O-]`, the inhibition is -5.81% (inactive).

Regarding `COc1cccc(C(C)NC(=O)c2c(F)cccc2Cl)c1` (centres undefined), the inhibition is 21.5% (inactive). For the molecule `CCCOc1ccc(C(=O)NCC(c2cccs2)N(C)C)cc1` (centres undefined), the inhibition is -0.69% (inactive). The same measure for `O=C(NC(=O)c1cccc(OC(F)(F)C(F)F)c1)OC1CCS(=O)(=O)C1` (centres undefined): 22.5% (inactive); for `Clc1ccc(CNc2ccc3nnc(-c4ccccc4)n3n2)cc1`: 0.04% (inactive); for `c1ccc(NC2=NCCCCS2)cc1`: 15.9% (inactive). The same measure for `N#Cc1cc2sc3nnc(-c4ccncc4)n3c2cc1C#N`: 24.9% (inactive); for `C=CCN(CC=C)C(=O)Nc1cc(Cl)ccc1OC`: 15.5% (inactive).
